# Assay results from ChEMBL document CHEMBL5360651, “Progress on the Pharmacological Targeting of Janus Pseudokinases” (J Med Chem, 2023).
# Assays:
# [1] = target: T1, Tyrosine-protein kinase JAK2 (Homo sapiens, UniProt O60674)
# [2] = target: T2, Non-receptor tyrosine-protein kinase TYK2 (Homo sapiens, UniProt P29597); format: cell-based, Sf9
# [3] = target: T2, Non-receptor tyrosine-protein kinase TYK2; format: cell-based, Sf9; remark: listed apart in the source
# [4] = target: T3, Tyrosine-protein kinase JAK1 (Homo sapiens, UniProt P23458)
# T3 sequence (P23458 whole entry): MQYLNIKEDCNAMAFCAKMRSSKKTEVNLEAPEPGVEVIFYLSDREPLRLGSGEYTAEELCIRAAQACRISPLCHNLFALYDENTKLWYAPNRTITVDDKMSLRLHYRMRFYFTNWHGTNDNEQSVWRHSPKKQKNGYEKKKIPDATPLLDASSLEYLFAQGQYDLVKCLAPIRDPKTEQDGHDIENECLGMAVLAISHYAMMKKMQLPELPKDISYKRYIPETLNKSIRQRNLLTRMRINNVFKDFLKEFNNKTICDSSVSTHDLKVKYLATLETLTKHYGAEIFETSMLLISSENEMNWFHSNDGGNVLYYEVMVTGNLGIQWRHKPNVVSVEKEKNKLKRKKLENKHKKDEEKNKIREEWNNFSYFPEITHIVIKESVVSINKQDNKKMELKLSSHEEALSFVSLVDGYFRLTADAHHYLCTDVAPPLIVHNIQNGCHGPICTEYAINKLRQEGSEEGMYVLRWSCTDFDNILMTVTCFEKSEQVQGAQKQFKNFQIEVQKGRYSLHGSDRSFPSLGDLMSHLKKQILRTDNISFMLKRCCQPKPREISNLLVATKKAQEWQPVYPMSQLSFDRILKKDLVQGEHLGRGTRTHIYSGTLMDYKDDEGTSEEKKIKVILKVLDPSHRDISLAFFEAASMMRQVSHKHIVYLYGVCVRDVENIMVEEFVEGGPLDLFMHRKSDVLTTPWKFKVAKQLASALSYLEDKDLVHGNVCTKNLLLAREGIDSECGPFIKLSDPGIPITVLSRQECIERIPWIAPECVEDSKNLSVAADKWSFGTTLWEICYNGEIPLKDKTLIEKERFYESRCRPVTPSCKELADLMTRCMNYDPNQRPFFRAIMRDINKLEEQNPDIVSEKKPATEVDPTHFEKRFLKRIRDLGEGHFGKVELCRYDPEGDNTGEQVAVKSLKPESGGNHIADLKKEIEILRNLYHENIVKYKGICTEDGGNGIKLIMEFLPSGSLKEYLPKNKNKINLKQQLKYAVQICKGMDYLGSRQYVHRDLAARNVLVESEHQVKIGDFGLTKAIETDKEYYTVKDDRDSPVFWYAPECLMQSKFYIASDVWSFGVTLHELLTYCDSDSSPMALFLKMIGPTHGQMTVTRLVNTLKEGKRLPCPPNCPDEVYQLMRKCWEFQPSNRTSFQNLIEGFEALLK
# [5] = Inhibition of JAK1 JH2 (unknown origin); design: species or system Homo sapiens
# [6] = Half life in human liver microsomes; format: ADME, Microsome
# [7] = Solubility of compound at pH 6.5; format: physicochemical; conditions: buffer
# [8] = target: T4, Tyrosine-protein kinase JAK3 (Homo sapiens, UniProt P52333); experiment: Inhibition of JAK3 signaling pathway in human PBMC cells assessed as reduction of IL-2 induced STAT5 phosphorylation; format: cell-based
# T4 sequence (P52333 whole entry): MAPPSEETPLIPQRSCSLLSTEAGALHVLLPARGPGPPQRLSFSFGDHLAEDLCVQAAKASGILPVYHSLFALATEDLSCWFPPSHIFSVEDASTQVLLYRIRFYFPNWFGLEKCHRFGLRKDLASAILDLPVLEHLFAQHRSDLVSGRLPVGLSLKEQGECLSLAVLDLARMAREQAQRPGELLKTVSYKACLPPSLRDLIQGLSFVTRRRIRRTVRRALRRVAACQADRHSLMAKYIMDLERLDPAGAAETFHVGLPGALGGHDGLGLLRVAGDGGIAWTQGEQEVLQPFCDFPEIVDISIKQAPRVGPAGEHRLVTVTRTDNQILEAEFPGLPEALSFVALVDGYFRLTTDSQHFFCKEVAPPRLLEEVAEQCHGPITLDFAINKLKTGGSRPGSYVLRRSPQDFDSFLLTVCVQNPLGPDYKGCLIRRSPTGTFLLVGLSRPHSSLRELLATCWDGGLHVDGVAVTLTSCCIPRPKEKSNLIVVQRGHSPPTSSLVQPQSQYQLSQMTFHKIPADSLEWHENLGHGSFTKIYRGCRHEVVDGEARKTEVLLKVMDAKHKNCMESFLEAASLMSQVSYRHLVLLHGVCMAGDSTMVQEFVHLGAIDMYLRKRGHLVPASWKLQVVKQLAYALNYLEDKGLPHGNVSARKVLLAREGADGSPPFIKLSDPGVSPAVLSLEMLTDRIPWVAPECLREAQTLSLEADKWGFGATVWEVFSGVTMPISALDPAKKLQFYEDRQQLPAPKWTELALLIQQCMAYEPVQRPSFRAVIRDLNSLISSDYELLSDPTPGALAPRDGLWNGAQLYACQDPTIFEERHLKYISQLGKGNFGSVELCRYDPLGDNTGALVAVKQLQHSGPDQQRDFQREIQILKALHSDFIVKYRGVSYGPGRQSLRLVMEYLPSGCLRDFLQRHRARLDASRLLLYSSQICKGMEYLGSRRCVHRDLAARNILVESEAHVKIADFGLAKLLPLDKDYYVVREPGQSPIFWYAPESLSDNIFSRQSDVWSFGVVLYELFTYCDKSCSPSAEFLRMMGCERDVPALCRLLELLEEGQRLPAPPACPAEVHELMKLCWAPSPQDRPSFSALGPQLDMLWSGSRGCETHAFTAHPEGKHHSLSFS
# [9] = target: T2, Non-receptor tyrosine-protein kinase TYK2; experiment: Inhibition of TYK2 signalling pathway in human PBMC cells assessed as IFN alpha induced p-STAT3 level; format: cell-based
# [10] = target: T2, Non-receptor tyrosine-protein kinase TYK2; experiment: Inhibition of TYK2 signalling pathway in human PBMC cells assessed as IFN alpha induced p-STAT1 level; format: cell-based
# [11] = target: T2, Non-receptor tyrosine-protein kinase TYK2; experiment: Inhibition of TYK2 JH2 in human KIT225 cells assessed as reduction of IFNalpha induced STAT1 phosphorylation by AlphaLISA assay; format: cell-based
# [12] = target: Voltage-gated inwardly rectifying potassium channel KCNH2 (Homo sapiens, UniProt Q12809); experiment: Inhibition of hERG by fluorescence polarization method; format: toxicity
# Voltage-gated inwardly rectifying potassium channel KCNH2, sequence (Q12809 whole entry): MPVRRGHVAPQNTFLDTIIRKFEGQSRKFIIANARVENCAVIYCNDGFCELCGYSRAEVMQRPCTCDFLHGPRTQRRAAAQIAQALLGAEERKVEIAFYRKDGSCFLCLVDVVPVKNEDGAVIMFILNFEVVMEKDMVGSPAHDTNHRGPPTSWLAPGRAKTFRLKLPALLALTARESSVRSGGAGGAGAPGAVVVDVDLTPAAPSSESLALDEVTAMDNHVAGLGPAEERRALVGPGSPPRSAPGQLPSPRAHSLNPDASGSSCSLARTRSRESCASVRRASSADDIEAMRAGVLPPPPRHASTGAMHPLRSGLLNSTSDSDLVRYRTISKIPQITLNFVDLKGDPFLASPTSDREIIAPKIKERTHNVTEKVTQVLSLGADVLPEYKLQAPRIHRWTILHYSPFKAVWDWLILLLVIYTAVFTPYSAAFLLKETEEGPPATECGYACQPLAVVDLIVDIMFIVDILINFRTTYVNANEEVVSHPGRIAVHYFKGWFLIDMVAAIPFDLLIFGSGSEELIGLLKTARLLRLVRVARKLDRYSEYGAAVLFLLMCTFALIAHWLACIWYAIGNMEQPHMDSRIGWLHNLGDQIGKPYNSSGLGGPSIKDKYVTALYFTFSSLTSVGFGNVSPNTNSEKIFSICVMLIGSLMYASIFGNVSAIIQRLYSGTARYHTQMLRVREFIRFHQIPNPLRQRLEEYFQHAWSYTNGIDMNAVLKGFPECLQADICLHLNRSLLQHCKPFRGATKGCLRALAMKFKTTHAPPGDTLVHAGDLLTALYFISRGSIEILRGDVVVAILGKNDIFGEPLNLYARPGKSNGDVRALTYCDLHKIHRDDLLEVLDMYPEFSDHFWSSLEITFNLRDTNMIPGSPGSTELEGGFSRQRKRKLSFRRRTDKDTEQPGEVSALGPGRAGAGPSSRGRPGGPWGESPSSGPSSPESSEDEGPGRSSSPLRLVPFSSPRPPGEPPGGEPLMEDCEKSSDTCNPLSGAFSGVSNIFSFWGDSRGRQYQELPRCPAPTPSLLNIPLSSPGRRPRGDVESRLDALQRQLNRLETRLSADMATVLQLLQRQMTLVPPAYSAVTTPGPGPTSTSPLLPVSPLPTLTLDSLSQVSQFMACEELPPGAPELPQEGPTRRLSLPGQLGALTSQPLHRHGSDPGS
# [13] = Inhibition of PDE4 (unknown origin) by HTRF assay; design: species or system Homo sapiens
# [14] = target: T3, Tyrosine-protein kinase JAK1; remark: listed apart in the source
# [15] = target: T5, Inhibitor of nuclear factor kappa-B kinase subunit beta (Homo sapiens) (UniProt O14920); experiment: Inhibition of IKKbeta (unknown origin) at 1 uM relative to control
# T5 sequence (whole entry): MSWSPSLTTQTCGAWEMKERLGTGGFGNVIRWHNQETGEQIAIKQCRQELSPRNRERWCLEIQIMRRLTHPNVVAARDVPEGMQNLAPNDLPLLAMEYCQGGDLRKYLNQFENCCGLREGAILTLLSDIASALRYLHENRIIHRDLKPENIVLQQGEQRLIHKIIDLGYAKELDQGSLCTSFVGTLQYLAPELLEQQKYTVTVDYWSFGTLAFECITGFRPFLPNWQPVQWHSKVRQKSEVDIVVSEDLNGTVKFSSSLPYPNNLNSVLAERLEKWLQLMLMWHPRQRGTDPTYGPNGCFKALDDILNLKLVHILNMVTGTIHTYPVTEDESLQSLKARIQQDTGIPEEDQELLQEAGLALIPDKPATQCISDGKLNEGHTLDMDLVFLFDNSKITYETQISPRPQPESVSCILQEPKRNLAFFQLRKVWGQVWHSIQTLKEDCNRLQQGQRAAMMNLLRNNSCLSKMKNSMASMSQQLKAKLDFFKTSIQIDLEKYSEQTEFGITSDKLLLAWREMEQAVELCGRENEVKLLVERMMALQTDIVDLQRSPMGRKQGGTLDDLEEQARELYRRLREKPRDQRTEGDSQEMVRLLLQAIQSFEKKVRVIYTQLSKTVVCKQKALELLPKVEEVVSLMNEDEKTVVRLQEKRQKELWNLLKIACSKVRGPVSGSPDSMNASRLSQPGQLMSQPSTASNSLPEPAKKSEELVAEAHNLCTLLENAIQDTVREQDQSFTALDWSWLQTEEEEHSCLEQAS
# [16] = target: T2, Non-receptor tyrosine-protein kinase TYK2; experiment: Inhibition of human recombinant N-terminal His-tagged TYK2 (575 to 869 residues) expressed in baculovirus infected Sf9 cells at 1 uM incubated for 30 mins by scintillation method
# [17] = target: T1, Tyrosine-protein kinase JAK2; experiment: Binding affinity to wild type JAK2 JH2 (unknown origin)
# [18] = target: Tyrosine-protein kinase JAK2 (Homo sapiens, UniProt O60674, V617F); experiment: Binding affinity to JAK2 V617F mutant (unknown origin) assessed as dissociation constant
# Tyrosine-protein kinase JAK2 (Homo sapiens, UniProt O60674, V617F), sequence (O60674 whole entry V617F): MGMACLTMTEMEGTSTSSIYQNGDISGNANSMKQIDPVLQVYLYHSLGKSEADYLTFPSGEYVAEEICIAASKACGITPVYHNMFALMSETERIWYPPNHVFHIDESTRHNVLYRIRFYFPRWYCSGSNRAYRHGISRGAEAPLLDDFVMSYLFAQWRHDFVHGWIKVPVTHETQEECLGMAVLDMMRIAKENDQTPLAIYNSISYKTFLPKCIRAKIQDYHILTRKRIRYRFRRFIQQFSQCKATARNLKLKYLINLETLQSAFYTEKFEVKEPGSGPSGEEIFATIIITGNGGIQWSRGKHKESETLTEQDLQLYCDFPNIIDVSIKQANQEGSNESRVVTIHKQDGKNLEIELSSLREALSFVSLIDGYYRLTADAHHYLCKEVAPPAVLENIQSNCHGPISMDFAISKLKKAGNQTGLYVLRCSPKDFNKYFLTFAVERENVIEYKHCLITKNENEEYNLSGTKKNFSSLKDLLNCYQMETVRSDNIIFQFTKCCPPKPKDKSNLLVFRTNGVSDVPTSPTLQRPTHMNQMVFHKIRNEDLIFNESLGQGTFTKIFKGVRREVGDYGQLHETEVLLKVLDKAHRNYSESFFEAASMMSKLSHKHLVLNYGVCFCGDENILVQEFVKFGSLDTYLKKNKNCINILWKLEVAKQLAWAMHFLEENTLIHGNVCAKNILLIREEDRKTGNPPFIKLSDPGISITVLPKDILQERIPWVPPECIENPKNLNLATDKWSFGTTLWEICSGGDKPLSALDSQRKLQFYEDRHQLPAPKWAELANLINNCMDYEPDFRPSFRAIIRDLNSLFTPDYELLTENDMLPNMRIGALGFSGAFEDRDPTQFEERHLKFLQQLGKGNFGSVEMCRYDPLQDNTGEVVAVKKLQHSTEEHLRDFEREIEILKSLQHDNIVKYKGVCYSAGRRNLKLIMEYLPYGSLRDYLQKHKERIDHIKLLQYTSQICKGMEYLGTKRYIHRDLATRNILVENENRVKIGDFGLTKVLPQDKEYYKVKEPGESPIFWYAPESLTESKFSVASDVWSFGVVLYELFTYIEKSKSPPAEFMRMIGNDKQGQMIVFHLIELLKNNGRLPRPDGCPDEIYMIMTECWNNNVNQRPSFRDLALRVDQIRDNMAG
# T2 sequence (P29597 whole entry): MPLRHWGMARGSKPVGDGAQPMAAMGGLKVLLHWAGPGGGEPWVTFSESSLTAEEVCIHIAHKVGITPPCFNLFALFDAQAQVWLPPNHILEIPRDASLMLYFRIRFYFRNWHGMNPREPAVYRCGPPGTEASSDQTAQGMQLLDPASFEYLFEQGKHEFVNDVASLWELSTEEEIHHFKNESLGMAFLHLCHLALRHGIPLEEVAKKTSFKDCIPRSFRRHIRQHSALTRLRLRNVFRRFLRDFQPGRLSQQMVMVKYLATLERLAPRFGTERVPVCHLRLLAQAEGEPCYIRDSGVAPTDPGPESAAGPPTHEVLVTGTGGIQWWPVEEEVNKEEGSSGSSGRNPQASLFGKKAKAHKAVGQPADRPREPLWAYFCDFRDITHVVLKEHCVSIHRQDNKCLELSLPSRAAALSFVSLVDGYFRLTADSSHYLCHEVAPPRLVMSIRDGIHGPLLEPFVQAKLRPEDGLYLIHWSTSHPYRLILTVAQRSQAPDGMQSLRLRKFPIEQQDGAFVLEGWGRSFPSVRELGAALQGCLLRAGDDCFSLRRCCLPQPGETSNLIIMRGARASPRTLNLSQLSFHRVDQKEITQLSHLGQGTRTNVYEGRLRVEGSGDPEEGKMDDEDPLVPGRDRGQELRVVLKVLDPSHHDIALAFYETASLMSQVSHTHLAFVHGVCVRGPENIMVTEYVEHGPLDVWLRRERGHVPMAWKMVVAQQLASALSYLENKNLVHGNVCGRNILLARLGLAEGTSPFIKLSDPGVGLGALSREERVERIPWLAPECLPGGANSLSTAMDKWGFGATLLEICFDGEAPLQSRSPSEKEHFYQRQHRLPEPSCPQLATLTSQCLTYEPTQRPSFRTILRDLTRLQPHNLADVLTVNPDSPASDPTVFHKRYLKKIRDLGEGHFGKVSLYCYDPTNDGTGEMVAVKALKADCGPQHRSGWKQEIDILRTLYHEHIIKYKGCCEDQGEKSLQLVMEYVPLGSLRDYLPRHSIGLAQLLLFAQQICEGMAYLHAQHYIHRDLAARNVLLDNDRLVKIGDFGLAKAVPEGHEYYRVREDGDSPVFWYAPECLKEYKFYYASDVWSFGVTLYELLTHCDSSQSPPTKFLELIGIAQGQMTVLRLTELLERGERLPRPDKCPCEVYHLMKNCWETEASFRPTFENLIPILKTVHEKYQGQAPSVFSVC
# T1 sequence (O60674 whole entry): as the sequence (O60674 whole entry V617F) above, with F617V counted along it
smiles,measurement,setting,value
O=c1cc(-c2ccccc2)nc2c(-c3cccc([N+](=O)[O-])c3)c(C(F)(F)F)[nH]n12,IC50,[1],14 µM
same,IC50,[2],9.7 µM
same,IC50,[3],50 µM
O=C(Nc1c[nH]nc1-c1nc2cc(CN3CCOCC3)ccc2[nH]1)NC1CC1 [AT-9283],IC50,[4],60 nM
CC(C)CCN1c2nc(Nc3cc(F)c(O)c(F)c3)ncc2N(C)C(=O)C1(C)C,IC50,[5],123 nM
[2H]C([2H])([2H])NC(=O)c1nnc(NC(=O)C2CC2)cc1Nc1cccc(-c2ncn(C)n2)c1OC [DEUCRAVACITINIB],half-life,[6],> 120 min
same,solubility,[7],< 1 µg/mL
same,IC50,[8],3 nM
CC(C)CCN1c2nc(Nc3cc(F)c(O)c(F)c3)ncc2N(C)C(=O)C1C (stereo not drawn),IC50,[5],658 nM
CS(=O)(=O)N1CC[C@H](C#CC(=O)N2CCC[C@@H](c3ccc(Cl)c(Cl)c3)C2)C1,IC50,[9],46 nM
same,IC50,[10],32 nM
CNC(=O)c1cnc(Nc2ccc(F)cn2)cc1Nc1ccccc1S(C)(=O)=O,IC50,[11],63 nM
CNC(=O)c1nnc(NC(=O)C2CC2)c2[nH]c(-c3ccc(N)cc3OC)cc12,IC50,[12],> 30 µM
same,half-life,[6],> 139 min
NC(=O)c1ccccc1Nc1cc(Nc2ccc(F)cn2)ncc1C(N)=O,IC50,[11],37 nM
same,IC50,[13],> 2000 nM
CNC(=O)c1cnc(Nc2ccc(C#N)cn2)cc1Nc1cccc(-c2ncn(C)n2)c1OC,IC50,[2],0.0003 µM
c1nc2nc(Nc3ccc(N4CCOCC4)cc3)nc(NC3CCCCC3)c2[nH]1 [REVERSINE],IC50,[4],350 nM
same,IC50,[14],350 nM
CNc1nc2sc(-c3cccc([C@@H](C)NC(=O)c4ccccc4S(C)(=O)=O)c3)nc2c2c1ncn2C,inhibition,[15],> 96%
same,inhibition,[16],99%
Nc1nc(CSc2nnc(NCC3CCCC3)s2)nc(Nc2ccc(F)cc2)n1,Kd,[17],149 µM
same,Kd,[18],65 µM
